{"source": "patent US9744186B2", "about": "(priority 2012, dated 2017)", "key": {"in vitro": {"test": "in vitro", "protocol": "Plating Cells: The Huh7 cell line was passaged when it was at about 70% confluency. The cells were counted using a hemocytometer, followed by dilution of the cells to 0.5×10^5 cells per mL in DMEM+10% FBS. The cells were plated at 100 μL (5,000 cells) per well in a clear 96-well plate. The cells were allowed to attach for 24 hours at 37° C.\nTreating the cells: The media (DMEM media without phenol red+2% FBS media) was pre-warmed to 37° C. […] This provided a final DMSO concentration of 0.5%. The 100 mM stock of 3,5-dichlorobenzoic acid was diluted in DMEM without phenol red+2% FBS to a concentration of 0.5 mM. The working 0.5 mM diluted test drugs were serially diluted in DMEM without phenol red+2% FBS+0.5% DMSO in order to maintain a constant concentration of DMSO in each condition. The 96-well plate was removed from the 37° C. incubator, and the media on the plate was replaced with media containing diluted test drug.\n(§1) MTS Assay: The reagents from CellTiter 96 kit (Promega Corporation, Madison, Wis.) were thawed at room temperature in the dark for 1 h. The 96-well plate was removed from the 37° C. incubator at 48 h after drug treatment. 20 μL of the combined MTS/PMS reagent to each well of the plate, mixed, and the plate returned to 37° C. The absorbance of each well at 490 nm and 650 nm was determined using the Flexstation 3 microplate reader in endpoint mode every hour for 3 h. The solutions in the wells were mixed prior to each reading. The data were fit to the Emax model: y=(Emax*x)/(TC50+x), where Emax is the maximum inhibition and TC50 is the inhibitory dose 50%. Alternatively, the data can be fit to the Emax sigmoidal model: y=(Emax*x^slope)/(TC50^slope+x^slope), where slope is the Hill Slope."}, "[1]": {"test": "Compound solubility in media", "type": "physicochemical", "settings": "DMEM+2% FBS cell culture media, 37 °C, plasma or biological fluid, kinetic from dmso stock; DMEM+2% FBS media", "protocol": "Treating the cells: Media (DMEM+2% FBS) was pre-warmed to 37° C. […] The 96-well plate was removed from the 37° C. incubator, and the media replaced on the plate with the serial dilutions of the test drug. The plate was then returned to 37° C. for 48 h."}, "[2]": {"test": "TC50 MTS assay with human cancer cell lines: Huh7", "type": "cell-based", "settings": "human, Huh7 cells; 96 h drug treatment", "protocol": "(§2) Plating Cells: The Huh7, HEPG2, HEK293, MCF-7, PK9, RPK9, or BxPC3 cells were passaged when they were about 70% confluent. The cells were counted using a hemocytometer, and then diluted cells to 0.5×10^5 cells per mL in DMEM+10% FBS. 100 µL of the cells (5,000 cells) were plated per well in a clear 96-well plate. The cells were allowed to attach for 24 hours at 37° C.\n(§3) Treating the cells: Pre-warm the DMEM media without phenol red+2% FBS media to 37° C. […] This will bring the final DMSO concentration to 0.5%. Use these 0.5 mM dilutions to further serially the drugs in DMEM without phenol red+2% FBS+0.5% DMSO. This will keep the concentration of DMSO in each condition identical. Remove the 96-well plate from the 37° C. incubator. Replace the media on the plate with the dilutions of the drugs. Stagger these treatments by 1 h and write the treatment time on each set of plates. Return to 37° C. for 48 h or 96 h as indicated.\nas §1, with “Fit Data” for “The data were fit”, “Alternatively, fit” for “Alternatively,”, “data” for “data can be fit”\n(§4) Each TC50 was the average value of three measurements as described herein. […] The RPK9 cells are deficient in deoxycytidine kinase (“dCK”) activity, an enzyme required for the initial phosphorylation of dFdC to dFdCMP (see FIG. 2)."}, "[3]": {"test": "TC50 MTS assay with human cancer cell lines: HEPG2", "type": "cell-based", "settings": "HEPG2 cells, 96 h drug treatment", "protocol": "as §2, §3\nas §1, with “Fit Data” for “The data were fit”, “Alternatively, fit” for “Alternatively,”, “data” for “data can be fit”\nas §4"}, "[4]": {"test": "TC50 MTS assay with human cancer cell lines: HEK293", "type": "cell-based", "settings": "HEK293 cells, 96 h drug treatment", "protocol": "as §2, §3\nas §1, with “Fit Data” for “The data were fit”, “Alternatively, fit” for “Alternatively,”, “data” for “data can be fit”\nas §4"}, "[5]": {"test": "Stability test of HPLC-purified gemcitabine analogs at different pH conditions", "type": "physicochemical", "settings": "200 μM", "protocol": "The solution was then incubated for 4 hours at 40° C. [table] HPLC analysis: 100 μl of the incubated solution was loaded onto the Vydac C18 analytical column 4.6/250 at 1 ml/min water with the following procedures: a. Inject 100 μl the incubated solution; b. Water for 5 minutes at 1 ml/min; c. 0-100% methanol over 30 minutes; d. Back to 20% methanol. Analysis: The standard HPLC analysis software was used to quantitate the area under each peak. Degradation peaks are quantitated as a percentage of the peak of the same amount of control sample (no heat treatment)."}, "HCV luciferase replicon": {"test_system": "HCV luciferase replicon", "test": "Reversal of anti-HCV activity by exogenous nucleosides", "type": "cell-based, hepatitis C virus (HCV)", "settings": "drug 1000, 100 or 25 nM; 50 μM cytidine or 2′-deoxycitidine; 48 h", "protocol": "After 48 hours, the cells were lysed, and the total luciferase activity was determined. […] Where indicated, either 50 μM cytidine (C) or 50 μM 2′-deoxycitidine (dC) was also included.\nThe cells were plated, incubated with drug, and luciferase activity assayed essentially as described herein above. The incubation with drug was for 48 h."}, "[6]": {"settings": "Pretreatment (control sample, no heat treatment)"}}, "data": [{"smiles": "O=C(Nc1ccn([C@@H]2O[C@H](CO)[C@@H](O)C2(F)F)c(=O)n1)c1cc(Cl)cc(Cl)c1", "note": "[GCB, N^4-(3,5-Dichlorobenzoyl)gemcitabine]", "values": [{"measurement": "CC50 at 48 h", "setting": "in vitro", "result": "110000 ± 36000", "unit": "nM"}, {"measurement": "solubility", "setting": "[1]", "result": "< 500", "unit": "µM"}, {"measurement": "CC50 at 96 h", "setting": "[2]", "result": "4170 ± 1060", "unit": "nM"}, {"measurement": "CC50 at 96 h", "setting": "[3]", "result": "633 ± 207", "unit": "nM"}, {"measurement": "CC50 at 96 h", "setting": "[4]", "result": "1190 ± 180", "unit": "nM"}, {"measurement": "% remaining", "setting": "[5]; [6]", "result": 100, "unit": "%"}, {"measurement": "% remaining", "setting": "[5]; pH 1, 4 hours at 40° C.", "result": 35, "unit": "%"}, {"measurement": "% remaining", "setting": "[5]; pH 2, 4 hours at 40° C.", "result": 82, "unit": "%"}, {"measurement": "% remaining", "setting": "[5]; pH 4, 4 hours at 40° C.", "result": 98.4, "unit": "%"}, {"measurement": "% remaining", "setting": "[5]; pH 6, 4 hours at 40° C.", "result": 99.6, "unit": "%"}, {"measurement": "% remaining", "setting": "[5]; pH 8, 4 hours at 40° C.", "result": 35.4, "unit": "%"}, {"measurement": "reversal of the inhibition of the HCV luciferase replicon by deoxycytidine and cytidine", "setting": "HCV luciferase replicon", "result": "reversal"}]}, {"smiles": "COc1cc(C(=O)Nc2ccn([C@@H]3O[C@H](CO)[C@@H](O)C3(F)F)c(=O)n2)cc(OC)c1OC", "note": "[GTB, N^4-(3,4,5-Trimethoxybenzoyl)gemcitabine]", "values": [{"measurement": "CC50 at 48 h", "setting": "in vitro", "result": "495000 ± 97000", "unit": "nM"}, {"measurement": "solubility", "setting": "[1]", "result": "> 500", "unit": "µM"}, {"measurement": "CC50 at 96 h", "setting": "[2]", "result": "5050 ± 1220", "unit": "nM"}, {"measurement": "CC50 at 96 h", "setting": "[3]", "result": "1670 ± 420", "unit": "nM"}, {"measurement": "CC50 at 96 h", "setting": "[4]", "result": "1280 ± 260", "unit": "nM"}, {"measurement": "% remaining", "setting": "[5]; [6]", "result": 100, "unit": "%"}, {"measurement": "% remaining", "setting": "[5]; pH 1, 4 hours at 40° C.", "result": 86, "unit": "%"}, {"measurement": "% remaining", "setting": "[5]; pH 2, 4 hours at 40° C.", "result": 87, "unit": "%"}, {"measurement": "% remaining", "setting": "[5]; pH 4, 4 hours at 40° C.", "result": 98.6, "unit": "%"}, {"measurement": "% remaining", "setting": "[5]; pH 6, 4 hours at 40° C.", "result": 99.5, "unit": "%"}, {"measurement": "% remaining", "setting": "[5]; pH 8, 4 hours at 40° C.", "result": 82.7, "unit": "%"}, {"measurement": "reversal of the inhibition of the HCV luciferase replicon by deoxycytidine and cytidine", "setting": "HCV luciferase replicon", "result": "reversal"}]}]}
